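1) Cells in 96-well plates. 2) Compound, 48 h, 5 concentrations. 3) Linear interpolation between surrounding doses. 4) Unreached endpoint = highest concentration. GI50: concentration for 50% inhibition of growth.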 Active and inactive are the calls of the source. Cut-off read from the data, not from the text of the source: active = GI50 up to about 1.1 µM and inactive = higher.
Experiments:
Test in all cases: NCI tumour cell line growth inhibition, 48 h
786-0 = test system: 786-0
A498 = test system: A498
A549 = test system: A549
ACHN = test system: ACHN
BT-549 = test system: BT-549
CAKI-1 = test system: CAKI-1
CCRF-CEM = test system: CCRF-CEM
COLO 205 = test system: COLO 205
DU-145 = test system: DU-145
EKVX = test system: EKVX
HCT-116 = test system: HCT-116
HCT-15 = test system: HCT-15
HL-60 = test system: HL-60
HOP-62 = test system: HOP-62
HOP-92 = test system: HOP-92
HT-29 = test system: HT-29
Hs-578T = test system: Hs-578T
IGROV-1 = test system: IGROV-1
K562 = test system: K562
KM12 = test system: KM12
LOX IMVI = test system: LOX IMVI
M14 = test system: M14
MDA-MB-231 = test system: MDA-MB-231
MDA-MB-435 = test system: MDA-MB-435
MDA-N = test system: MDA-N
MOLT-4 = test system: MOLT-4
Malme-3M = test system: Malme-3M
NCI-H226 = test system: NCI-H226
NCI-H23 = test system: NCI-H23
NCI-H460 = test system: NCI-H460
NCI-H522 = test system: NCI-H522
NCI/ADR-RES = test system: NCI/ADR-RES
OVCAR-3 = test system: OVCAR-3
OVCAR-5 = test system: OVCAR-5
OVCAR-8 = test system: OVCAR-8
PC-3 = test system: PC-3
RPMI-8226 = test system: RPMI-8226
RXF 393 = test system: RXF 393
SF-268 = test system: SF-268
SF-295 = test system: SF-295
SF-539 = test system: SF-539
SK-MEL-28 = test system: SK-MEL-28
SK-MEL-2 = test system: SK-MEL-2
SK-MEL-5 = test system: SK-MEL-5
SK-OV-3 = test system: SK-OV-3
SN12C = test system: SN12C
SNB-19 = test system: SNB-19
SNB-75 = test system: SNB-75
SW-620 = test system: SW-620
T47D = test system: T47D
TK-10 = test system: TK-10
U-251 = test system: U-251
UACC-257 = test system: UACC-257
UACC-62 = test system: UACC-62
UO-31 = test system: UO-31
HCC 2998 = test system: HCC 2998
MCF7 = test system: MCF7
OVCAR-4 = test system: OVCAR-4
SR = test system: SR

**Q.** What does the source list for COc1nc(N)nc2c1n(C)c[n+]2C?
**A.** GI50 (786-0): > 100 µM (inactive); GI50 (A498): > 100 µM (inactive); GI50 (A549): > 100 µM (inactive); GI50 (ACHN): > 100 µM (inactive); GI50 (BT-549): > 100 µM (inactive); GI50 (CAKI-1): > 100 µM (inactive); GI50 (CCRF-CEM): > 100 µM (inactive); GI50 (COLO 205): > 100 µM (inactive); GI50 (DU-145): > 100 µM (inactive); GI50 (EKVX): > 100 µM (inactive); GI50 (HCT-116): > 100 µM (inactive); GI50 (HCT-15): > 100 µM; GI50 (HL-60): > 100 µM (inactive); GI50 (HOP-62): > 100 µM (inactive); GI50 (HOP-92): > 100 µM (inactive); GI50 (HT-29): > 100 µM (inactive); GI50 (Hs-578T): > 100 µM (inactive); GI50 (IGROV-1): > 100 µM (inactive); GI50 (K562): > 100 µM (inactive); GI50 (KM12): > 100 µM (inactive); GI50 (LOX IMVI): > 100 µM (inactive); GI50 (M14): > 100 µM (inactive); GI50 (MDA-MB-231): > 100 µM (inactive); GI50 (MDA-MB-435): > 100 µM (inactive); GI50 (MDA-N): > 100 µM (inactive); GI50 (MOLT-4): > 100 µM (inactive); GI50 (Malme-3M): > 100 µM (inactive); GI50 (NCI-H226): > 100 µM (inactive); GI50 (NCI-H23): > 100 µM (inactive); GI50 (NCI-H460): > 100 µM (inactive); GI50 (NCI-H522): > 100 µM (inactive); GI50 (NCI/ADR-RES): > 100 µM (inactive); GI50 (OVCAR-3): > 100 µM (inactive); GI50 (OVCAR-5): > 100 µM (inactive); GI50 (OVCAR-8): > 100 µM (inactive); GI50 (PC-3): > 100 µM (inactive); GI50 (RPMI-8226): > 100 µM (inactive); GI50 (RXF 393): > 100 µM (inactive); GI50 (SF-268): > 100 µM (inactive); GI50 (SF-295): > 100 µM (inactive); GI50 (SF-539): > 100 µM (inactive); GI50 (SK-MEL-28): > 100 µM (inactive); GI50 (SK-MEL-2): > 100 µM (inactive); GI50 (SK-MEL-5): > 100 µM (inactive); GI50 (SK-OV-3): > 100 µM (inactive); GI50 (SN12C): > 100 µM (inactive); GI50 (SNB-19): > 100 µM (inactive); GI50 (SNB-75): > 100 µM (inactive); GI50 (SW-620): > 100 µM (inactive); GI50 (T47D): > 100 µM (inactive); GI50 (TK-10): > 100 µM (inactive); GI50 (U-251): > 100 µM (inactive); GI50 (UACC-257): > 100 µM (inactive); GI50 (UACC-62): > 100 µM (inactive); GI50 (UO-31): > 100 µM (inactive)

**Q.** Which GI50 (A498) does the source give for O=c1[nH]c(=S)[nH]c2c(C3OC(CO)C(O)C3O)nsc12 (stereo not given) here?
**A.** > 100 µM (inactive)

**Q.** And the GI50 (A549)?
**A.** > 100 µM (inactive)

**Q.** And the GI50 (BT-549)?
**A.** > 100 µM (inactive)

**Q.** And the GI50 (CAKI-1)?
**A.** > 100 µM (inactive)

**Q.** What about the GI50 (CCRF-CEM) of the same compound?
**A.** > 100 µM (inactive)

**Q.** And the GI50 (COLO 205)?
**A.** > 100 µM (inactive)

**Q.** And the GI50 (DU-145)?
**A.** > 100 µM (inactive)

**Q.** What about the GI50 (EKVX) of the same compound?
**A.** > 100 µM (inactive)

**Q.** And the GI50 (HCC 2998)?
**A.** > 100 µM (inactive)

**Q.** And the GI50 (HCT-116)?
**A.** > 100 µM (inactive)

**Q.** What about the GI50 (HCT-15) of the same compound?
**A.** > 100 µM

**Q.** And the GI50 (HL-60)?
**A.** > 100 µM (inactive)

**Q.** What about the GI50 (HOP-62) of the same compound?
**A.** > 100 µM (inactive)

**Q.** And the GI50 (HOP-92)?
**A.** > 100 µM (inactive)

**Q.** What about the GI50 (HT-29) of the same compound?
**A.** > 100 µM (inactive)

**Q.** What about the GI50 (Hs-578T) of the same compound?
**A.** > 100 µM (inactive)

**Q.** And the GI50 (IGROV-1)?
**A.** > 100 µM (inactive)

**Q.** What about the GI50 (K562) of the same compound?
**A.** > 100 µM (inactive)

**Q.** And the GI50 (LOX IMVI)?
**A.** > 100 µM (inactive)

**Q.** What about the GI50 (M14) of the same compound?
**A.** > 100 µM (inactive)

**Q.** What about the GI50 (MCF7) of the same compound?
**A.** > 100 µM (inactive)

**Q.** What about the GI50 (MDA-MB-435) of the same compound?
**A.** > 100 µM (inactive)

**Q.** And the GI50 (MDA-N)?
**A.** > 100 µM (inactive)

**Q.** And the GI50 (MOLT-4)?
**A.** > 100 µM (inactive)

**Q.** What about the GI50 (Malme-3M) of the same compound?
**A.** > 100 µM (inactive)

**Q.** And the GI50 (NCI-H226)?
**A.** > 100 µM (inactive)

**Q.** And the GI50 (NCI-H460)?
**A.** > 100 µM (inactive)

**Q.** And the GI50 (NCI/ADR-RES)?
**A.** > 100 µM (inactive)

**Q.** And the GI50 (OVCAR-3)?
**A.** > 100 µM (inactive)

**Q.** And the GI50 (OVCAR-4)?
**A.** > 100 µM (inactive)

**Q.** What about the GI50 (OVCAR-5) of the same compound?
**A.** > 100 µM (inactive)

**Q.** And the GI50 (OVCAR-8)?
**A.** > 100 µM (inactive)

**Q.** And the GI50 (PC-3)?
**A.** > 100 µM (inactive)

**Q.** What about the GI50 (RXF 393) of the same compound?
**A.** > 100 µM (inactive)

**Q.** What about the GI50 (SF-268) of the same compound?
**A.** > 100 µM (inactive)

**Q.** What about the GI50 (SF-295) of the same compound?
**A.** > 100 µM (inactive)

**Q.** What about the GI50 (SF-539) of the same compound?
**A.** > 100 µM (inactive)

**Q.** What about the GI50 (SK-MEL-28) of the same compound?
**A.** > 100 µM (inactive)

**Q.** What about the GI50 (SK-MEL-2) of the same compound?
**A.** > 100 µM (inactive)

**Q.** What about the GI50 (SK-MEL-5) of the same compound?
**A.** > 100 µM (inactive)

**Q.** And the GI50 (SK-OV-3)?
**A.** > 100 µM (inactive)

**Q.** What about the GI50 (SN12C) of the same compound?
**A.** > 100 µM (inactive)

**Q.** And the GI50 (SNB-75)?
**A.** > 100 µM (inactive)

**Q.** And the GI50 (SR)?
**A.** > 10 µM (inactive)

**Q.** And the GI50 (SW-620)?
**A.** > 100 µM (inactive)

**Q.** What about the GI50 (T47D) of the same compound?
**A.** > 100 µM (inactive)

**Q.** And the GI50 (TK-10)?
**A.** > 100 µM (inactive)

**Q.** What about the GI50 (U-251) of the same compound?
**A.** > 100 µM (inactive)

**Q.** What about the GI50 (UACC-257) of the same compound?
**A.** > 100 µM (inactive)

**Q.** What about the GI50 (UACC-62) of the same compound?
**A.** > 100 µM (inactive)
